From patent US20260364182A1, “PROTEOLYSIS-TARGETING CHIMERAS AGAINST THE PAPAIN-LIKE PROTEASE OF SARS-COV-2” (Tocris Cookson Limited, priority 2022, published 2026) come the findings set out here.

SMILES strings stand for the structures. Some results are limits rather than exact numbers.

Assay [1] concerns SARS-CoV-2. Kind of assay: Antiviral assay in infected Vero E6 cells (ATP quantification, Cell Titer Glo). The settings on record: Vero E6 cells, MOI 0.05, 72 h; for inhibition at 10 µM / inhibition at 50 µM: Severe acute respiratory syndrome coronavirus 2, Vero C1008, 72 h; for inhibition at 10 µM: read-out: Antiviral Activity, 10 uM (cell viability assay), 10 uM; for inhibition at 50 µM: read-out: Antiviral Activity, 50 uM (cell viability assay), 50 uM; for Antiviral Activity, 10 uM (cell viability assay): 4320 min. For orientation: ATP-based viability assays read luminescence as a measure of living cells.
Description: Vero E6 cells (2×10^4/well) were seeded in 96 well plates one day before the experiment. Pre-treatment, the medium was removed and compounds were added at concentrations varying from 0.1-100 μM. After 24 h incubation, the medium was removed and cells were infected with MOI 0.05 SARS-CoV-2 SARS-CoV2/ZG/297-20. After 1 h infection, the viruses were removed and the same concentration of compounds were added back into the cells. After 72 h incubation at 37 °C, EC50 measurements were made using ATP quantification (Cell Titer Glo).

For assay [2], the target named is T1, SARS-CoV-2 PLpro (Severe acute respiratory syndrome coronavirus 2, UniProt P0DTD1).
T1 construct: The papain-like protease domain (PLpro) of SARS-CoV-2 (SCoV2)
Nature of the assay: IC50 inhibitory assay, fluorogenic substrate cleavage by PLpro. It counts as biochemical. The settings on record: for IC50: SARS-CoV-2 PLpro 0.1 μM, substrate 10 μM, pH 8.1, 37 °C, 10 min preincubation; for inhibitory potency of PROTAC and parent ligand in binary IC50 experiment (in words): in vitro inhibitory assay, 20 mM HEPES, pH 8.1, 1% DMSO, PROTAC compared with parent ligand. How it is done:
The inhibitory activities of compounds against SARS-CoV-2 PLpro were determined in a reaction buffer containing 20 mM HEPES, 40 mM NaCl, 5% glycerol, 2 mM DTT (freshly added before the measurements), pH 8.1, at 37 °C. A fluorescent substrate of SARS-CoV-2 PLpro (Z-Arg-leu-Arg-Gly-Gly-[…]AMC; Biosyntan, Berlin) was used, and the fluorescence signal of the cleaved substrate was monitored using a Tecan Spark® fluorescence spectrophotometer at an […] wavelength of 460/360 nm. SARS-CoV-2 PLpro (10 μL per well) was pipetted into a 96-well plate together with reaction buffer reaction buffer (50 μL per well, final enzyme concentration: 0.1 μM). Compounds (10 μL per well) were added at varying concentrations, and plates incubated at 37 °C for 10 mins. Finally, the reaction was initiated by adding 30 μL of the substrate (final concentration: 10 μM) dissolved in the reaction buffer.
FIG. 1: PROTAC and parent ligand for SARS-CoV-2 PLpro in a binary IC50 experiment. C10778A PROTAC (top left), comprising a SARS-CoV-2 PLpro targeting ligand C10778B (bottom left) connected to thalidomide via a C3 alkyl linker. IC50 values have been determined in an in vitro inhibitory binding assay whereby the fluorescence signal resulting from cleavage of a fluorogenic substrate by PLpro is measured. Inhibition of PLpro is associated with reduced cleavage of the fluorogenic substrate. […] Assay conditions: experiments were performed in 20 mM HEPES buffer containing 40 mM NaCl 5% glycerol, 2 mM DTT at pH 8.1. A fluorogenic substrate for PLpro (Z-Arg-leu-Arg-Gly-Gly-AMC) was used to determine the inhibition rate of compounds. Final DMSO concentration in each reaction was 1%. Measurements were performed in triplicate.

One may read the IC50 as the midpoint of a concentration-inhibition curve.

Take `C[C@H](c1cccc2ccccc12)N1CCC(C(=O)NCc2cc(F)cc(NC(=O)N3CCN(CCCCOc4ccc5c(c4)C(=O)N(C4CCC(=O)NC4=O)C5=O)CC3)c2)CC1` (stereo partly drawn) [TS530]: in assay [1], the inhibition at 10 µM is under 25% and the inhibition at 50 µM was under 75%. Further, the IC50 in assay [2] was under 10 µM.

Take `C[C@H](c1cccc2ccccc12)N1CCC(C(=O)NCc2cc(F)cc(NC(=O)N3CCN(CCCCC(=O)N4CCN(c5ccc(C6CCC(=O)NC6=O)cc5)CC4)CC3)c2)CC1` (stereo partly drawn) [TS551]: in assay [1], the inhibition at 10 µM is under 25% and the inhibition at 50 µM is under 50%. Besides, the half-maximal inhibitory concentration (IC50) in assay [2] is under 10 µM.

Consider `C[C@H](c1cccc2ccccc12)N1CCC(C(=O)NCc2cc(F)cc(NC(=O)N3CCN(CCOCCOCCOCCOc4cccc5c4C(=O)N(C4CCC(=O)NC4=O)C5=O)CC3)c2)CC1` (stereo partly drawn) [TS423], for which, in assay [1], the inhibition at 10 µM is under 25% and the inhibition at 50 µM is under 0%. Also, the IC50 in assay [2] is under 10 µM.

Consider `C[C@H](c1cccc2ccccc12)N1CCC(C(=O)NCc2cc(F)cc(NC(=O)N3CCN(CCCCCCOc4ccc5c(c4)C(=O)N(C4CCC(=O)NC4=O)C5=O)CC3)c2)CC1` (stereo partly drawn) [TS534], for which, in assay [1], the inhibition at 10 µM was under 25% and the inhibition at 50 µM is over 75%. Moreover, the IC50 in assay [2] was under 10 µM.

`Cc1ccc(NC(=O)CCCCCCC(=O)N[C@H](C(=O)N2C[C@H](O)C[C@H]2C(=O)NCc2ccc(-c3scnc3C)cc2)C(C)(C)C)cc1C(=O)N[C@H](C)c1cccc2ccccc12` [TS310]: in assay [1], the inhibition at 10 µM was under 0% and the inhibition at 50 µM was under 0%. The molecule also gave an IC50 in assay [2] of over 25 µM.

Consider `Cc1ccc(NC2CCNCC2)cc1C(=O)N[C@H](C)c1cccc(-c2ccc(CNC(=O)CCCCCNC(=O)COc3ccc(C4CCC(=O)NC4=O)cc3)s2)c1` (stereo partly drawn) [Compound C10778G], for which, in assay [1], the inhibition at 10 µM is under 25% and the inhibition at 50 µM is under 25%. In addition, the half-inhibitory concentration (IC50) in assay [2] is under 1 µM.

Take `Cc1ccc(NC2CCNCC2)cc1C(=O)N[C@H](C)c1cccc(-c2ccc(CNC(=O)CCCNc3cccc4c3C(=O)N(C3CCC(=O)NC3=O)C4=O)s2)c1` (stereo partly drawn) [Compound C10778I]: in assay [1], the inhibition at 10 µM is under 0% and the inhibition at 50 µM was under 0%. In assay [2], this molecule displayed an IC50 of under 1 µM.

Consider `Cc1ccc(NC(=O)CCOCCOCCNc2ccc3c4c(cccc24)C(=O)N(C2CCC(=O)NC2=O)C3=O)cc1C(=O)N[C@H](C)c1cccc2ccccc12` (stereo partly drawn) [TS170], for which, in assay [1], the inhibition at 10 µM is under 0% and the inhibition at 50 µM was under 25%. Also, the IC50 in assay [2] is under 10 µM.

Consider `Cc1ccc(NC2CCNCC2)cc1C(=O)N[C@H](C)c1cccc(-c2ccc(CNC(=O)CCCCCOc3cccc4c3C(=O)N(C3CCC(=O)NC3=O)C4=O)s2)c1` (stereo partly drawn) [Compound C10778C], for which, in assay [1], the inhibition at 10 µM was under 0% and the inhibition at 50 µM was under 0%. Besides, the IC50 in assay [2] was under 10 µM.

As to `Cc1ncsc1-c1ccc(CNC(=O)[C@@H]2C[C@@H](O)CN2C(=O)[C@@H](NC(=O)CCCCN2CCN(C(=O)Nc3cc(F)cc(CNC(=O)C4CCN([C@H](C)c5cccc6ccccc56)CC4)c3)CC2)C(C)(C)C)cc1` [TS558], in assay [1], the inhibition at 10 µM was under 0% and the inhibition at 50 µM was under 0%. In assay [2], the IC50 was under 10 µM.

As for `C[C@H](c1cccc2ccccc12)N1CCC(C(=O)NCc2cc(F)cc(NC(=O)N3CCN(CCCCCCNC(=O)COc4ccc(C5CCC(=O)NC5=O)cc4)CC3)c2)CC1` (stereo partly drawn) [TS529], in assay [1], the inhibition at 10 µM was under 75% and the inhibition at 50 µM is under 75%. The same molecule displayed an IC50 in assay [2] of under 10 µM.

Turning to `C[C@H](c1cccc2ccccc12)N1CCC(C(=O)NCc2cc(F)cc(NC(=O)N3CCN(CCOCCOCCC(=O)N4CCN(c5ccc(C6CCC(=O)NC6=O)cc5)CC4)CC3)c2)CC1` (stereo partly drawn) [TS568], in assay [1], the inhibition at 10 µM was under 25% and the inhibition at 50 µM was under 75%. The IC50 in assay [2] is under 10 µM.

In the case of `C[C@H](c1cccc2ccccc12)N1CCC(C(=O)NCc2cc(F)cc(NC(=O)N3CCN(CCOCCOCCOc4cccc5c4C(=O)N(C4CCC(=O)NC4=O)C5=O)CC3)c2)CC1` (stereo partly drawn) [TS420], in assay [1], the inhibition at 10 µM is under 25% and the inhibition at 50 µM is under 0%. The IC50 in assay [2] was under 10 µM.

As to `Cc1ccc(NC(=O)CCCCOc2cc3c4c(cccc4c2)C(=O)N(C2CCC(=O)NC2=O)C3=O)cc1C(=O)N[C@H](C)c1cccc2ccccc12` (stereo partly drawn) [TS251], in assay [1], the inhibition at 10 µM was under 0% and the inhibition at 50 µM was under 25%. In addition, the half-maximal inhibitory concentration (IC50) in assay [2] was 10 to 25 µM.

For `Cc1ccc(NC(=O)CCCNc2cccc3c2C(=O)N(C2CCC(=O)NC2=O)C3=O)cc1C(=O)N[C@H](C)c1cccc2ccccc12` (stereo partly drawn) [TS145], the IC50 in assay [2] is under 10 µM.

For the molecule `Cc1ccc(NC(=O)CCCCCOc2cc(-c3scnc3C)ccc2CNC(=O)[C@@H]2C[C@@H](O)CN2C(=O)[C@@H](NC(=O)C2(F)CC2)C(C)(C)C)cc1C(=O)N[C@H](C)c1cccc2ccccc12` (stereo in doubt) [TS291], in assay [1], the inhibition at 10 µM was under 0% and the inhibition at 50 µM was under 25%. Further, in assay [2], the IC50 was over 25 µM.

For the molecule `C[C@H](c1cccc2ccccc12)N1CCC(C(=O)NCc2cc(F)cc(NC(=O)N3CCN(CCCCOc4cccc5c4C(=O)N(C4CCC(=O)NC4=O)C5=O)CC3)c2)CC1` (stereo partly drawn) [TS452], in assay [1], the inhibition at 10 µM was under 0% and the inhibition at 50 µM is under 0%. The molecule also gave a half-inhibitory concentration (IC50) in assay [2] of under 10 µM.

In the case of `Cc1ccc(NC(=O)CCOCCNc2ccc3c4c(cccc24)C(=O)N(C2CCC(=O)NC2=O)C3=O)cc1C(=O)N[C@H](C)c1cccc2ccccc12` (stereo in doubt) [TS181], in assay [1], the “Antiviral Activity, 10 uM (cell viability assay)” value is listed as “E (<0% = E)” and the inhibition at 50 µM was under 0%.

`C[C@H](c1cccc2ccccc12)N1CCC(C(=O)NCc2cc(F)cc(NC(=O)N3CCN(CCCCCCOc4cccc5c4C(=O)N(C4CCC(=O)NC4=O)C5=O)CC3)c2)CC1` (stereo partly drawn) [TS444]: in assay [1], the inhibition at 10 µM is under 25% and the inhibition at 50 µM was under 25%. This molecule gave a concentration for half-maximal inhibition (IC50) in assay [2] of under 10 µM.

Regarding `Cc1ccc(NC2CCNCC2)cc1C(=O)N[C@H](C)c1cccc(-c2ccc(CNC(=O)CCCCNC(=O)COc3ccc(C4CCC(=O)NC4=O)cc3)s2)c1` (stereo partly drawn) [Compound C10778F], in assay [1], the inhibition at 10 µM is under 25% and the inhibition at 50 µM is under 25%. This molecule registered a 50% inhibitory concentration (IC50) in assay [2] of under 10 µM.

On to `C[C@H](c1cccc2ccccc12)N1CCC(C(=O)NCc2cc(F)cc(NC(=O)N3CCN(CCOc4ccc5c(c4)C(=O)N(C4CCC(=O)NC4=O)C5=O)CC3)c2)CC1` (stereo partly drawn) [TS499], for which, in assay [1], the inhibition at 10 µM is under 25% and the inhibition at 50 µM was under 25%. In assay [2], the IC50 is under 1 µM.

With `Cc1ccc(NC(=O)CCOCCNc2ccc3c4c(cccc24)C(=O)N(C2CCC(=O)NC2=O)C3=O)cc1C(=O)N[C@H](C)c1cccc2ccccc12` (stereo partly drawn) [Compound C10778H], in assay [1], the “Antiviral Activity, 10 uM (cell viability assay)” value is on record as “D (<25% = D)”. Further, the “Antiviral Activity, 50 uM (cell viability assay)” value in assay [1] (50 uM) is given as “E (<0% = E)”. Further, the IC50 in assay [2] is over 25 µM.

Take `Cc1ccc(NC(=O)CCCCC(=O)N[C@H](C(=O)N2C[C@H](O)C[C@H]2C(=O)NCc2ccc(-c3scnc3C)cc2)C(C)(C)C)cc1C(=O)N[C@H](C)c1cccc2ccccc12` [TS309]: in assay [1], the inhibition at 10 µM was under 0% and the inhibition at 50 µM is under 0%. The IC50 in assay [2] is 10 to 25 µM.

`C[C@H](c1cccc2ccccc12)N1CCC(C(=O)NCc2cc(F)cc(NC(=O)N3CCN(CCOc4cccc5c4C(=O)N(C4CCC(=O)NC4=O)C5=O)CC3)c2)CC1` (stereo partly drawn) [TS445]: in assay [1], the inhibition at 10 µM is under 25% and the inhibition at 50 µM is under 25%. In addition, in assay [2], the IC50 was under 1 µM.

As to `Cc1ccc(NC2CCNCC2)cc1C(=O)N[C@H](C)c1cccc(-c2ccc(CNC(=O)CCCOc3cccc4c3C(=O)N(C3CCC(=O)NC3=O)C4=O)s2)c1` (stereo partly drawn) [Compound C10778A, N-((1R)-1-(3-(5-((4-((2-(2,6-Dioxopiperidin-3-yl)-1,3-dioxoisoindolin-4-yl)oxy)butanamido)methyl)thiophen-2-yl)phenyl)ethyl)-2-methyl-5-(piperidin-4-ylamino)benzamide], in assay [2], the IC50 is under 1 µM; the “inhibitory potency of PROTAC and parent ligand in binary IC50 experiment (in words)” value is on record as “retains nM activity for PLpro, similar to the parent compound”.

Regarding `CC(=O)NCc1ccc(-c2cccc([C@@H](C)NC(=O)c3cc(NC4CCNCC4)ccc3C)c2)s1` [Compound C10778B, (R)—N-(1-(3-(5-(Acetamidomethyl)thiophen-2-yl)phenyl)ethyl)-2-methyl-5-(piperidin-4-ylamino)benzamide, reference compound], in assay [2], the “inhibitory potency of PROTAC and parent ligand in binary IC50 experiment (in words)” value is “nM activity for PLpro”.
